In patent publication US9910034B2, “Methods and compositions for phototransfer” (AmberGen, Inc., priority 2007, dated 2018):

Target: T1, protein kinase Cα (PKCα) (Homo sapiens, UniProt P17252)
T1 construct: isolate and photo-release endogenous PKCα from the undiluted detergent fractionated HeLa cell extracts; endogenous in cells; host or cells: HeLa cells (ATCC)
Test: PMA mediated PKCα sub-cellular translocation measured by kinase activity after isolation with photocleavable antibodies
Assay type: cell-based
Conditions: cultured HeLa cells stimulated with 200 nM PMA for 5 min; detergent fractionated; based on kinase activity of photocleavable antibody isolated protein; n=4
Experimental: FIG. 20. Phorbol ester (PMA) mediated protein kinase Cα (PKCα) sub-cellular translocation as measured by functional activity following isolation with photocleavable antibodies. Cultured HeLa cells were stimulated with 200 nM PMA for 5 min and detergent fractionated into the cytosol and membrane compartments prior to isolation and purification with the photocleavable antibodies.
Cultured HeLa cells (ATCC; Manassas, Va.) were stimulated for 5 min with 200 nM Phorbol-12-Myristate-13-Acetate (PMA; EMD Biosciences, Inc., San Diego, Calif.) and subsequently detergent fractionated into sub-cellular compartments according to reported procedures [Ramsby et al. (1994) Electrophoresis 15, 265-277; Ramsby & Makowski. (1999) Methods Mol Biol 112, 53-66; Chiang et al. (2000) J Biochem Biophys Methods 46, 53-68]. PMA is a potent activator of PKCα and is well known to cause translocation of the kinase from the cytosolic to the membrane sub-cellular compartments [Ross & Joyner. (1997) Endothelium 5, 321-332; Bazan & Rapoport. (1996) J Pharmacol Toxicol Methods 36, 87-95; Yazlovitskaya Melnykovych. (1995) Cancer Lett 88, 179-183]. […]

CCCCCCCCCCCCCC(=O)O[C@@H]1[C@@H](C)[C@@]2(O)[C@@H](C=C(CO)C[C@]3(O)C(=O)C(C)=C[C@@H]23)[C@@H]2C(C)(C)[C@]12OC(C)=O [PMA, Phorbol-12-Myristate-13-Acetate]
relative sub-cellular distribution of PKCα, cytosol: 16±4%
relative sub-cellular distribution of PKCα, membrane: 84±3%
